Experimental findings from article PMC5078989, “Targeted inhibition of the COP9 signalosome for treatment of cancer” (Nature Communications, 2016) are described below.

By IC50 is commonly meant the concentration that gives 50% inhibition.

Series [1] has as its target T1, human MMP1 (Homo sapiens, UniProt P03956).
T1 construct: Human MMP1 (Uniprot P03956), amino acids 1–469; made in house; host or cells: stably transfected C127 cells
T1 sequence (P03956 20-469): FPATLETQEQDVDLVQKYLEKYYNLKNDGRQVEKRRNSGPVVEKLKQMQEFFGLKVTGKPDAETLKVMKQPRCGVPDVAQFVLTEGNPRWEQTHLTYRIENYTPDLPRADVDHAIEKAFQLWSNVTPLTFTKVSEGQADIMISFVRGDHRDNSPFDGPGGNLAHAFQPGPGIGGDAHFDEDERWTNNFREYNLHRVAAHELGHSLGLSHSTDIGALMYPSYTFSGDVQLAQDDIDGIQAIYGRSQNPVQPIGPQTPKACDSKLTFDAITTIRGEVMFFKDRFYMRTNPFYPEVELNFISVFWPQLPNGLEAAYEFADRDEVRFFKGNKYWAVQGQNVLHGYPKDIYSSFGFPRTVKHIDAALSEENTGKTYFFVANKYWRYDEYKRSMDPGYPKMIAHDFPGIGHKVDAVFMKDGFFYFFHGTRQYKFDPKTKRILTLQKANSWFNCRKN
Description: Selectivity assay MMP1. The series is classed as biochemical. Here is the method:
All biochemical assays were performed at room temperature in 384-well plates in a total volume of 25.25 μl per well. Test compounds were dissolved in 90% (v/v) DMSO/water. For the assays, 250 nl of compound solution was added per well, followed by addition of 12.5 μl protease solution. After 70 min of pre-incubation at room temperature, the reactions were started by addition of 12.5 μl substrate solution and followed either by measuring fluorescence intensity (rhodamine 110-based substrates) or by fluorescence lifetime (PT14-based substrates). The effect of compound on enzymatic activity was obtained from the linear part of the progress curves and determined after 1 h (t=60 min). The final compound concentrations ranged from 100 μM to 1 nM.
Matrix metalloproteinases. […]

Series [2] relates to THP-1 cells. The series can be described thus: Cell viability assay (CellTiter-Glo), THP-1. It is filed as cell-based, human. As to conditions: THP-1, 72 h; cytotoxic. Here is the method:
Cells were maintained in a humidified incubator at 37 °C and 5% CO2. […] All cells were negatively tested for mycoplasma contamination either by the vendor or in house. […] If not stated otherwise, cells were harvested after incubation for 16 h and subjected to SDS-PAGE and western blotting. The RNA interference experiment was performed with CSN5 stealth siRNA (#HSS116986) and stealth negative control siRNA (#12935-400) (Invitrogen), which were transfected at 10 nM into HCT116 cells using […] (Qiagen) according to the manufacturer's protocols. Seventy-two hours after transfection, cells were harvested and subjected to SDS-PAGE and western blotting (see Supplementary Fig. 7 for all western blottings performed). A standardized CellTiter-Glo Assay (Promega #G7570) based on the quantification of ATP was applied according to the manufacturer's protocol to measure the amount of viable cells in culture. In brief, cells were seeded into 384-well plates at optimal density for each cell line. After 4 h, compounds were added at different concentrations in growth medium and incubated for another 72 h in a humidifying chamber at 37 °C and 5% CO2. Eventually, equal amounts of CellTiter-Glo reagent were added directly to the cells, incubated for 15 min and luminescence was recorded using PHERAstar plate reader (BMG LABTECH GmbH).
A general note: In ATP-based viability assays light output follows the ATP content of the culture.

Series [3] in a line: Blood concentrations of CSN5i-3 in xenograft study. The series is classed as in vivo, SCID-bg mice. As to conditions: 50 mg kg^−1 BID and 100 mg kg^−1 QD oral. On the procedure: All animal experiments were approved by the Kantonales Veterinäramt Basel-Stadt and were conducted in accordance with the Eidgenössisches Tierschutzgesetz and the Eidgenössische Tierschutzverordnung. SU-DHL-1 cells (1 × 10^7; DSMZ) were implanted subcutaneously into SCID-bg female 7–9-week-old mice (Taconic) and developing tumours were propagated once before subcutaneous transplantation for efficacy studies. Treatment was initiated when tumours reached 150–200 mm^3 volume. […] Randomization was conducted by using an internal computer software (Indigo). CSN5i-3 was formulated in 100 mM citrate buffer pH 3, PEG300, Kolliphor HS15, 1 N HCl (56:30:10:4%w/w). Tumour response is reported as percentage change in tumour volume at the last day of treatment relative to start of treatment. […] At day 10 of treatment blood, samples were taken and concentrations of CSN5i-3 were determined at indicated time points post dose using ultra-high-pressure liquid chromatography/tandem MS. At the end of treatment, tumours were excised and snap frozen in liquid nitrogen. Frozen tumours were pulverized using CryoPrep (Covaris Inc.) and protein lysates were prepared from tumour powder for immunoblot analysis.

On to `CC(C)n1nc(C(F)F)cc1C(=O)Nc1ccc([C@H]2[C@@H](O)CCCc3cncn32)c(-c2ccccc2)c1` [CSN5i-3, 3-(Difluoromethyl)-N-(6-((5S,6S)-6-hydroxy-6,7,8,9-tetrahydro-5H-imidazo[1,5-a]azepin-5-yl)-[1,1′-biphenyl]-3-yl)-1-isopropyl-1H-pyrazole-5-carboxamide], for which, in series [1], the IC50 was above 100 µM. The AMAX in series [2] was at most −95%. Further, the “dose dependence of exposure” value in series [3] is recorded as “dose-linear exposure”.
